From ChEMBL document CHEMBL1201862, “PubChem BioAssay data set” (2004) come the findings set out here.

Some test systems named below: 786-0; A498; A549; CCRF-CEM; EKVX; HCT-116; HT-29; LOX IMVI; MDA-MB-231; NCI-H226; OVCAR-8; RPMI-8226; SF-295; SK-MEL-2; SK-MEL-5; SR; SW-620; T47D; TK-10; UACC-257.
What all share (experiment): growth of human tumour cells (NCI), 48 h

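1) Cells in 96-well plates. 2) Compound, 48 h, 5 concentrations. 3) Linear interpolation between surrounding doses. 4) Unreached endpoint = highest concentration. At the GI50, growth is halved.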 The source made the active and inactive calls. Cut-off read from the data, not from the text of the source: active = GI50 up to about 1.1 µM and inactive = higher.

For the molecule `Cc1nc2c(=O)n(C)c(=O)n(C)c2o1`, the GI50 in the experiment with 786-0, in the experiment with A498, in the experiment with A549, in the experiment with CCRF-CEM, in the experiment with EKVX and in the experiment on HCT-116 was > 100 µM (inactive) in each case. For the same molecule, the GI50 in the experiment on HT-29, in the experiment on LOX IMVI, in the experiment with MDA-MB-231, with NCI-H226, with OVCAR-8 and with RPMI-8226 was > 100 µM (inactive) each time. In addition, the GI50 in the experiment with SF-295, in the experiment on SK-MEL-2, in the experiment on SK-MEL-5, in the experiment on SR, with SW-620 and in the experiment on T47D was > 100 µM (inactive) throughout. Further, the GI50 with TK-10 and in the experiment with UACC-257 was > 100 µM (inactive) in each case.
Take `CCNC(C)(C)C(SS)c1ccc(Br)cc1` (stereo not given): the GI50 in the experiment with 786-0 was 21.3 µM (inactive); with A498, > 100 µM (inactive); with A549 it was > 100 µM (inactive); in the experiment on CCRF-CEM, 20.3 µM (inactive); with EKVX, > 100 µM (inactive); in the experiment on HCT-116, 29.6 µM (inactive). Moreover, the GI50 in the experiment with HT-29 was 25.8 µM (inactive); with LOX IMVI, 26.1 µM (inactive); with MDA-MB-231 it was > 100 µM (inactive); in the experiment with NCI-H226, > 100 µM (inactive); with OVCAR-8, > 100 µM (inactive); with RPMI-8226, 27.8 µM (inactive). Also, the GI50 is > 100 µM (inactive) with SF-295; > 100 µM (inactive) with SK-MEL-2; 91.4 µM (inactive) with SK-MEL-5; 30.4 µM (inactive) in the experiment with SR; 22.4 µM (inactive) with SW-620; 24 µM (inactive) with T47D. The GI50 in the experiment with TK-10 is 53.3 µM (inactive); with UACC-257 it was 28.3 µM (inactive).
As for `CN(Cc1cnc2nc(N)nc(N)c2n1)c1ccc(C(=O)N[C@@H](CCC(=O)O)C(=O)O)cc1` [METHOTREXATE], the GI50 in the experiment with 786-0 was 0.034 µM (active); with A498, 4.78 µM (inactive); in the experiment with A549, 0.0345 µM (active); in the experiment with CCRF-CEM, 0.0296 µM (active); in the experiment with EKVX, 18.4 µM (inactive); in the experiment with HCT-116, 0.0347 µM (active). For the same molecule, the GI50 is 0.0335 µM (active) in the experiment on HT-29; 0.0274 µM (active) in the experiment on LOX IMVI; 38.7 µM (inactive) with MDA-MB-231; 20 µM (inactive) in the experiment with NCI-H226; 0.0292 µM (active) in the experiment on OVCAR-8; 0.0661 µM (active) with RPMI-8226. The GI50 was 0.0383 µM (active) in the experiment on SF-295; 102 µM (inactive) with SK-MEL-2; 0.09 µM (active) in the experiment on SK-MEL-5; 0.0373 µM (active) in the experiment on SR; 0.0388 µM (active) in the experiment on SW-620; 28 µM (inactive) with T47D. The GI50 with TK-10 is 37.4 µM (inactive); with UACC-257, 0.836 µM (active).
For `COc1ccccc1C1C2=C(COC2=O)OC(C)(C)Oc2cc3c(cc21)OCO3` (stereo not given), the GI50 was 3.83 µM (inactive) in the experiment on 786-0; 3.06 µM (inactive) in the experiment on A498; 5.13 µM (inactive) with A549; 4.06 µM (inactive) with CCRF-CEM; 3.56 µM (inactive) in the experiment on EKVX; 3.75 µM (inactive) in the experiment with HCT-116. The GI50 in the experiment with HT-29 was 3.47 µM (inactive); with LOX IMVI, 5.16 µM (inactive); in the experiment on MDA-MB-231, 2.86 µM (inactive); in the experiment with NCI-H226, 10.3 µM (inactive); with OVCAR-8 it was 5.12 µM (inactive); in the experiment on RPMI-8226 it was 4.03 µM (inactive). Besides, the GI50 is 2.67 µM (inactive) with SF-295; 4.06 µM (inactive) in the experiment with SK-MEL-2; 3.36 µM (inactive) in the experiment with SK-MEL-5; 3.44 µM (inactive) in the experiment with SR; 3.67 µM (inactive) in the experiment on SW-620; 5.93 µM (inactive) with T47D. The GI50 in the experiment on TK-10 is 1.69 µM (inactive); in the experiment with UACC-257, 6.81 µM (inactive).
With `OC1(c2cccs2)c2cccc(Cl)c2C(O)(c2cccs2)c2c(Cl)cccc21` (stereo not given), the GI50 in the experiment with 786-0 is 34.4 µM (inactive); in the experiment with A498, > 100 µM (inactive); in the experiment with A549, > 100 µM (inactive); in the experiment with CCRF-CEM, 93.3 µM (inactive); with EKVX it was > 100 µM (inactive); in the experiment on HCT-116 it was > 100 µM (inactive). Also, the GI50 in the experiment on HT-29 is > 100 µM (inactive); in the experiment on LOX IMVI, > 100 µM (inactive); in the experiment with MDA-MB-231, 18.5 µM (inactive); with NCI-H226, > 100 µM (inactive); in the experiment on OVCAR-8 it was 58.9 µM (inactive); in the experiment on RPMI-8226 it was > 100 µM (inactive). The GI50 is 33.1 µM (inactive) in the experiment with SF-295; 37.2 µM (inactive) in the experiment on SK-MEL-2; > 100 µM (inactive) with SK-MEL-5; 36.6 µM (inactive) with SR; > 100 µM (inactive) in the experiment with SW-620; > 100 µM (inactive) in the experiment with T47D. Further, the GI50 in the experiment on TK-10 and in the experiment on UACC-257 was > 100 µM (inactive) throughout.
As to `CC1=CC(=O)[C@@H](O)[C@]2(C)[C@H]3[C@@]4(O)OC[C@]35[C@H]([C@@H](C)[C@H]4O)[C@@H](OC(=O)C(C)(C)CO)C(=O)O[C@@H]5C[C@@H]12`, the GI50 in the experiment on 786-0 is 0.16 µM (active); in the experiment with A498, 1.42 µM (inactive); in the experiment with A549, 2.51 µM (inactive); in the experiment on CCRF-CEM it was 0.0362 µM (active); in the experiment on EKVX, 0.741 µM (active); with HCT-116, < 0.0199 µM (active). For the same molecule, the GI50 with HT-29 was 0.207 µM (active); in the experiment on LOX IMVI, < 0.012 µM (active); with MDA-MB-231 it was 0.363 µM (active); in the experiment on NCI-H226, < 0.0216 µM (active); in the experiment on OVCAR-8, 0.19 µM (active); in the experiment with RPMI-8226, 0.0158 µM (active). For the same molecule, the GI50 in the experiment with SF-295 is 0.229 µM (active); with SK-MEL-2, < 0.0453 µM (active); with SK-MEL-5, < 0.0204 µM (active); with SR, 0.0155 µM (active); in the experiment on SW-620, 0.229 µM (active); in the experiment with T47D, 0.0209 µM (active). Besides, the GI50 with TK-10 is 0.575 µM (active); in the experiment with UACC-257 it was 0.118 µM (active).
